# From patent US8329904B2, “Azacyclic derivatives” (Hoffmann-La Roche Inc., priority 2009, dated 2012)
# Target: T1, human HSL (Homo sapiens, UniProt Q05469)
# T1 construct: overlapping PCR to generate a full length human HSL ORF with a 3′-His6 tag; His6 (C); made in house; host or cells: High 5 insect cells (baculovirus, pFast-BAC)
# T1 sequence (Q05469 1-1076): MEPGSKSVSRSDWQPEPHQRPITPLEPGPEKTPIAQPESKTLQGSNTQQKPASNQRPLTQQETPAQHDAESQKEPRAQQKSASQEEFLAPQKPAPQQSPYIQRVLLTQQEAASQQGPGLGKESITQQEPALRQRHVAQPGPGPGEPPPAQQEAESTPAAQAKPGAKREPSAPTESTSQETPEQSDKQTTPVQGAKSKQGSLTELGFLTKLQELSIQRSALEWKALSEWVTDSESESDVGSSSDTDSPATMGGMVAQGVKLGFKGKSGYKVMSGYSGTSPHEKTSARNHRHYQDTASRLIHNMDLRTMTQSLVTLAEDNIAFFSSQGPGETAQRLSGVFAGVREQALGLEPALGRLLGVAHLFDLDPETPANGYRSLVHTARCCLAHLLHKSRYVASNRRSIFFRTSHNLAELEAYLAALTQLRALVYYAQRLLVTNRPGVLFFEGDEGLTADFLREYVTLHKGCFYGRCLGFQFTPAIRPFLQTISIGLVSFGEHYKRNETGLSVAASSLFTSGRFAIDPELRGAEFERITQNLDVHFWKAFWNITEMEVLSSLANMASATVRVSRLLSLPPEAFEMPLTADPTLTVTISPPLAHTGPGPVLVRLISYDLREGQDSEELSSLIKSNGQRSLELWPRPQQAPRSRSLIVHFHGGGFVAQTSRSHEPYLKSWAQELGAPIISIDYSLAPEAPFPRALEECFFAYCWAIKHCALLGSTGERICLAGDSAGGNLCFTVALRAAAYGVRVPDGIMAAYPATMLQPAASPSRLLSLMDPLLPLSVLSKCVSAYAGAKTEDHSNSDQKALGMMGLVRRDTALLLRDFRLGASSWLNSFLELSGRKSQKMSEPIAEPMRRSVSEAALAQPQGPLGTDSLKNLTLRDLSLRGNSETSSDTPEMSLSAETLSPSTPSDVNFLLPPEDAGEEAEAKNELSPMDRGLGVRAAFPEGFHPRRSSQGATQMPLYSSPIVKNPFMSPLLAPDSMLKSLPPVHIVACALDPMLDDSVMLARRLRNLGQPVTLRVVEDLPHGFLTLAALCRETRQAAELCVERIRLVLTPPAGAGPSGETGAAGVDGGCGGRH
# Assay: Human Hormone-Sensitive Lipase (HSL) Enzyme Inhibition Assay
# Format: biochemical
# Details: colorimetric assay, 2,3-dimercapto-1-propanol tributyrate (DMPT) substrate, 37° C. for 20 minutes, absorbance at 405 nm; read-out: HSL hum IC50
# Outline: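 Colorimetric thioester hydrolysis: compounds in DMSO series mixed with DMPT (1.5 mM) in MOPS pH 7.2 with BSA, then baculovirus-expressed His6-tagged full-length human HSL added, 37° C, 20 min. DTNB plus detergents added, 15 min room temperature, absorbance at 405 nm.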
row,Compound,IC50 [µM]
1,"O=C1N(c2ccc(OC(F)(F)F)cc2)CCC12CCN(S(=O)(=O)C1CC1)CC2 [Example 96, 8-Cyclopropanesulfonyl-2-(4-trifluoromethoxy-phenyl)-2,8-diaza-spiro[4.5]decan-1-one]",0.13
2,"Cc1noc(C)c1S(=O)(=O)N1CCC2(CCN(c3ccc(OC(C)C(F)(F)F)cc3)C2=O)CC1 (stereo not shown) [Example 97, 8-(3,5-Dimethyl-isoxazole-4-sulfonyl)-2-[4-(2,2,2-trifluoro-1-methyl-ethoxy)-phenyl]-2,8-diaza-spiro[4.5]decan-1-one]",0.11
3,"CC(Oc1ccc(N2CCC3(CCN(S(=O)(=O)C4CC4)CC3)C2=O)cc1)C(F)(F)F (stereo not shown) [Example 98, 8-Cyclopropanesulfonyl-2-[4-(2,2,2-trifluoro-1-methyl-ethoxy)-phenyl]-2,8-diaza-spiro[4.5]decan-1-one]",0.17
4,"CC(Oc1ccc(N2CCC3(CCN(S(=O)(=O)c4ccccc4OC(F)(F)F)CC3)C2=O)cc1)C(F)(F)F (stereo not shown) [Example 99, 8-(2-Trifluoromethoxy-benzenesulfonyl)-2-[4-(2,2,2-trifluoro-1-methyl-ethoxy)-phenyl]-2,8-diaza-spiro[4.5]decan-1-one]",0.03
5,"CC(Oc1ccc(N2CCC3(CCN(S(=O)(=O)c4ccccc4C(F)(F)F)CC3)C2=O)cc1)C(F)(F)F (stereo not shown) [Example 100, 8-(2-Trifluoromethyl-benzenesulfonyl)-2-[4-(2,2,2-trifluoro-1-methyl-ethoxy)-phenyl]-2,8-diaza-spiro[4.5]decan-1-one]",0.04
6,CC(Oc1ccc(N2CCC3(CCN(S(=O)(=O)c4ccccc4C(F)(F)F)CC3)C2=O)cc1)C(F)(F)F (stereo not shown) [Example 101],0.04
7,"CC(C)CS(=O)(=O)N1CCC2(CCN(c3ccc(OCCC(F)(F)F)cc3)C2=O)CC1 [Example 102, 8-(2-Methyl-propane-1-sulfonyl)-2-[4-(3,3,3-trifluoro-propoxy)-phenyl]-2,8-diaza-spiro[4.5]decan-1-one]",0.36
8,"O=C1N(c2ccc(OCCC(F)(F)F)cc2)CCC12CCN(S(=O)(=O)c1ccccc1OC(F)(F)F)CC2 [Example 103, 8-(2-Trifluoromethoxy-benzenesulfonyl)-2-[4-(3,3,3-trifluoro-propoxy)-phenyl]-2,8-diaza-spiro[4.5]decan-1-one]",0.05
9,"O=C1N(c2ccc(I)cc2)CCC12CCN(S(=O)(=O)c1ccccc1OC(F)(F)F)CC2 [Example 104, 2-(4-Iodo-phenyl)-8-(2-trifluoromethoxy-benzenesulfonyl)-2,8-diaza-spiro[4.5]decan-1-one]",0.04
10,"COCCc1ccc(N2CCC3(CCN(S(=O)(=O)c4ccccc4OC(F)(F)F)CC3)C2=O)cc1 [Example 105, 2-[4-(2-Methoxy-ethyl)-phenyl]-8-(2-trifluoromethoxy-benzenesulfonyl)-2,8-diaza-spiro[4.5]decan-1-one]",0.02
11,"COCCOc1ccc(N2CCC3(CCN(S(=O)(=O)c4ccccc4OC(F)(F)F)CC3)C2=O)cc1 [Example 106, 2-[4-(2-Methoxy-ethoxy)-phenyl]-8-(2-trifluoromethoxy-benzenesulfonyl)-2,8-diaza-spiro[4.5]decan-1-one]",0.04
12,"COCCCOc1ccc(N2CCC3(CCN(S(=O)(=O)CC(C)C)CC3)C2=O)cc1 [Example 107, 2-[4-(3-Methoxy-propoxy)-phenyl]-8-(2-methyl-propane-1-sulfonyl)-2,8-diaza-spiro[4.5]decan-1-one]",0.74
13,"COCC(C)(C)c1ccc(N2CCC3(CCN(S(=O)(=O)CC(C)C)CC3)C2=O)cc1 [Example 108, 2-[4-(2-Methoxy-1,1-dimethyl-ethyl)-phenyl]-8-(2-methyl-propane-1-sulfonyl)-2,8-diaza-spiro[4.5]decan-1-one]",0.1
14,"COCCCOc1ccc(N2CCC3(CCN(S(=O)(=O)c4ccccc4OC(F)(F)F)CC3)C2=O)cc1 [Example 109, 2-[4-(3-Methoxy-propoxy)-phenyl]-8-(2-trifluoromethoxy-benzenesulfonyl)-2,8-diaza-spiro[4.5]decan-1-one]",0.04
15,"COCC(C)(C)c1ccc(N2CCC3(CCN(S(=O)(=O)c4ccccc4OC(F)(F)F)CC3)C2=O)cc1 [Example 110, 2-[4-(2-Methoxy-1,1-dimethyl-ethyl)-phenyl]-8-(2-trifluoromethoxy-benzenesulfonyl)-2,8-diaza-spiro[4.5]decan-1-one]",0.03
16,"Cc1noc(C)c1S(=O)(=O)N1CCC2(CCN(c3ccc(OC(C)C)cc3)C2=O)CC1 [Example 111, 8-(3,5-Dimethyl-isoxazole-4-sulfonyl)-2-(4-isopropoxy-phenyl)-2,8-diaza-spiro[4.5]decan-1-one]",0.11
17,"COCC(C)(C)c1ccc(N2CCC3(CCN(S(=O)(=O)c4c(C)noc4C)CC3)C2=O)cc1 [Example 112, 8-(3,5-Dimethyl-isoxazole-4-sulfonyl)-2-[4-(2-methoxy-1,1-dimethyl-ethyl)-phenyl]-2,8-diaza-spiro[4.5]decan-1-one]",0.27
18,"CC(Oc1ccc(N2CCC3(CCN(C(=O)C4(C)CC4(Cl)Cl)CC3)C2=O)cc1)C(F)(F)F (stereo not shown) [Example 113, 8-(2,2-Dichloro-1-methyl-cyclopropanecarbonyl)-2-[4-(2,2,2-trifluoro-1-methyl-ethoxy)-phenyl]-2,8-diaza-spiro[4.5]decan-1-one]",0.14
19,"O=C1N(c2ccc(OCC(F)(F)F)cc2)CCC12CCN(S(=O)(=O)c1ccccc1Cl)CC2 [Example 115, 8-(2-Chloro-benzenesulfonyl)-2-[4-(2,2,2-trifluoro-ethoxy)-phenyl]-2,8-diaza-spiro[4.5]decan-1-one]",0.03
20,"O=C1N(c2ccc(OCCC(F)(F)F)nc2)CCC12CCN(S(=O)(=O)c1ccccc1Cl)CC2 [Example 116, 8-(2-Chloro-benzenesulfonyl)-2-[6-(3,3,3-trifluoro-propoxy)-pyridin-3-yl]-2,8-diaza-spiro[4.5]decan-1-one]",0.11
21,"O=C1N(c2ccc(OCC(F)(F)F)nc2)CCC12CCN(S(=O)(=O)c1ccccc1)CC2 [Example 117, 8-Benzenesulfonyl-2-[6-(2,2,2-trifluoro-ethoxy)-pyridin-3-yl]-2,8-diaza-spiro[4.5]decan-1-one]",0.06
22,"O=C1N(c2cnc(OCC(F)(F)F)nc2)CCC12CCN(S(=O)(=O)c1ccccc1)CC2 [Example 118, 8-Benzenesulfonyl-2-[2-(2,2,2-trifluoro-ethoxy)-pyrimidin-5-yl]-2,8-diaza-spiro[4.5]decan-1-one]",0.47
23,"O=C1N(c2ccc(OCC(F)(F)F)nc2)CCC12CCN(S(=O)(=O)c1ccccc1Cl)CC2 [Example 119, 8-(2-Chloro-benzenesulfonyl)-2-[6-(2,2,2-trifluoro-ethoxy)-pyridin-3-yl]-2,8-diaza-spiro[4.5]decan-1-one]",0.05
24,"CC(C)(C)CC(=O)N1CCC2(CC1)CCN(c1ccc(OCC(F)(F)F)cc1)C2=O [Example 120, 8-(3,3-Dimethyl-butyryl)-2-[4-(2,2,2-trifluoro-ethoxy)-phenyl]-2,8-diaza-spiro[4.5]decan-1-one]",0.6
25,"CC1(C(=O)N2CCC3(CC2)CCN(c2ccc(OCC(F)(F)F)cc2)C3=O)CC1(Cl)Cl (stereo not shown) [Example 121, 8-(2,2-Dichloro-1-methyl-cyclopropanecarbonyl)-2-[4-(2,2,2-trifluoro-ethoxy)-phenyl]-2,8-diaza-spiro[4.5]decan-1-one]",0.2
26,"CC(C)(C)CC(=O)N1CCC2(CC1)CCN(c1ccc(OCC(F)(F)F)nc1)C2=O [Example 122, 8-(3,3-Dimethyl-butyryl)-2-[6-(2,2,2-trifluoro-ethoxy)-pyridin-3-yl]-2,8-diaza-spiro[4.5]decan-1-one]",0.54
27,"CC(Oc1ccc(N2CCC3(CCN(C(=O)CC(C)(C)C)CC3)C2=O)cc1)C(F)(F)F (stereo not shown) [Example 123, 8-(3,3-Dimethyl-butyryl)-2-[4-(2,2,2-trifluoro-1-methyl-ethoxy)-phenyl]-2,8-diaza-spiro[4.5]decan-1-one]",0.25
28,"CCn1cc2cc(N3CCC4(CCN(S(=O)(=O)c5ccccc5Cl)CC4)C3=O)ccc2n1 [Example 124, 8-(2-Chloro-benzenesulfonyl)-2-(2-ethyl-2H-indazol-5-yl)-2,8-diaza-spiro[4.5]decan-1-one]",0.06
